Assay [1] concerns the target Lysine-specific demethylase 4A (Homo sapiens) (UniProt O75164). Nature of the assay: Affinity On-target Cellular interaction: (Cellular thermal shift assay (CETSA), U2OS cells) EUB0002543a KDM4A. In kind it is functional, cell-based. Details: recommended concentration 1 uM. Conditions: Affinity On-target Cellular Source Knowledge https://www.nature.com/articles/ncomms14773#Tab1.

The target in assay [2] is Nuclear receptor subfamily 1 group I member 3 (Homo sapiens, UniProt Q14994). Nature of the assay: Affinity On-target Cellular interaction: (Reporter gene assay (HEK293T cells)) EUB0000551aCl NR1I3. It counts as functional, cell-based, HEK-293T. Details: mode of action Antagonist, recommended concentration 1 uM.
For a further assay, the target named is Vitamin D3 receptor (Homo sapiens, UniProt P11473). Nature of the assay: Affinity On-target Cellular interaction: (Reporter gene assay (HEK293T cells)) EUB0000583a VDR. It counts as functional, cell-based, HEK-293T. Details: mode of action Agonist, recommended concentration 1 uM. (Reporter assays use an easily measured gene product as a stand-in for the process of interest.)

Assay [3] concerns the target T1, Peroxisome proliferator-activated receptor alpha (Homo sapiens, UniProt Q07869).
T1 sequence (Q07869 whole entry): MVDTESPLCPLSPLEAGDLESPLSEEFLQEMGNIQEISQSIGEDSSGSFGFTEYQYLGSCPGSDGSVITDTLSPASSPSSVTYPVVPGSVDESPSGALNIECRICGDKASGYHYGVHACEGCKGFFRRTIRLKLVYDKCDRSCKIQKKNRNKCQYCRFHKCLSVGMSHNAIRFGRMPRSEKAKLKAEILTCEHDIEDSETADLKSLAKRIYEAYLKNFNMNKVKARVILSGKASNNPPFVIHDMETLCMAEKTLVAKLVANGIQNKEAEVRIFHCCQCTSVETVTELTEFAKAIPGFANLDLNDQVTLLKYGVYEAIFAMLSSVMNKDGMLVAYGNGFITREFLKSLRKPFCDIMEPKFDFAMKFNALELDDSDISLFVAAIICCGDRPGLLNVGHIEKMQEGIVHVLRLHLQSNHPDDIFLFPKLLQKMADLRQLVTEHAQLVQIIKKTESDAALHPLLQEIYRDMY
Put plainly: Affinity On-target Cellular interaction: (Reporter gene assay (HEK293T cells)) EUB0000581a PPARA. It counts as functional, cell-based, HEK-293T. Also on record: mode of action Agonist, recommended concentration 1 uM.

Assay [4] addresses T1, Peroxisome proliferator-activated receptor alpha. Nature of the assay: Affinity On-target Cellular interaction: (Reporter gene assay (HEK293T cells)) EUB0000188b PPARA. Also on record: mode of action Agonist, recommended concentration 1 uM. It counts as functional, cell-based, HEK-293T.
For assay [5], the target named is T2, Peroxisome proliferator-activated receptor gamma (Homo sapiens, UniProt P37231).
T2 sequence (P37231 whole entry): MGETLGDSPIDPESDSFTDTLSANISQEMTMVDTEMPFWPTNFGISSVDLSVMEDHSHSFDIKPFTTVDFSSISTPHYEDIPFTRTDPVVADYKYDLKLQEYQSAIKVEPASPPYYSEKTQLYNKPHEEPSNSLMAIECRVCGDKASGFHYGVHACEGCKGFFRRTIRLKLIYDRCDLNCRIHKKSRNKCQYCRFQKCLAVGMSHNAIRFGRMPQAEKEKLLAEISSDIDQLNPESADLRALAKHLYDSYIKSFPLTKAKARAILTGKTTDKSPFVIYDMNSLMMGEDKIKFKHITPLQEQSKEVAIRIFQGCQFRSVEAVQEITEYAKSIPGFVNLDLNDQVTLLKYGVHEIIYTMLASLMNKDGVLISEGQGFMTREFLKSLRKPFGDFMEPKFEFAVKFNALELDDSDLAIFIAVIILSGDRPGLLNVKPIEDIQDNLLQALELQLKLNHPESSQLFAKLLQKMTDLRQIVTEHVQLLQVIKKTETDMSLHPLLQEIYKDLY
Put plainly: Affinity On-target Cellular interaction: (Reporter gene assay (HEK293T cells)) EUB0000188b PPARG. It counts as functional, cell-based, HEK-293T. Details: mode of action Agonist, recommended concentration 1 uM.

The target of assay [6] is T3, Peroxisome proliferator-activated receptor delta (Homo sapiens, UniProt Q03181).
T3 sequence (Q03181 whole entry): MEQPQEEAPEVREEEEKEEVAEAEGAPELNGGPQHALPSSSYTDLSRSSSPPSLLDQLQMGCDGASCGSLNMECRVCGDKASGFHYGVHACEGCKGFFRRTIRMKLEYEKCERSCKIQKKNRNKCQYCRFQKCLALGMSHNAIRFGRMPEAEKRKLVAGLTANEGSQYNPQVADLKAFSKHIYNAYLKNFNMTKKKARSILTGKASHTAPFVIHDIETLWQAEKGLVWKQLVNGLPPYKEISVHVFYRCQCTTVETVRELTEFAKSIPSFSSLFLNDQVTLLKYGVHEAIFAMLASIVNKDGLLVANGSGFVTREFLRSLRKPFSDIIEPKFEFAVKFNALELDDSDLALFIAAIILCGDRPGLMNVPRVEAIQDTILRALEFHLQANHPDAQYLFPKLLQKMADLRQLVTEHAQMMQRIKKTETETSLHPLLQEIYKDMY
Nature of the assay: Affinity On-target Cellular interaction: (Reporter gene assay (HEK293T cells)) EUB0000188b PPARD. It counts as functional, cell-based, HEK-293T. Details: mode of action Agonist, recommended concentration 1 uM.

For assay [7], the target named is Retinoic acid receptor gamma (Homo sapiens, UniProt P13631). Put plainly: Affinity On-target Cellular interaction: (Reporter gene assay (HEK293T cells)) EUB0000835a RARG. It counts as functional, cell-based, HEK-293T. Also on record: mode of action Agonist, recommended concentration 1 uM.
The target of assay [8] is Retinoic acid receptor alpha (Homo sapiens, UniProt P10276). Put plainly: Affinity On-target Cellular interaction: (Reporter gene assay (HEK293T cells)) EUB0000835a RARA. It counts as functional, cell-based, HEK-293T. Details: mode of action Agonist, recommended concentration 1 uM.
For assay [9], the target named is Retinoic acid receptor beta (Homo sapiens, UniProt P10826). Put plainly: Affinity On-target Cellular interaction: (Reporter gene assay (HEK293T cells)) EUB0000835a RARB. In kind it is functional, cell-based, HEK-293T. Also on record: mode of action Agonist, recommended concentration 1 uM.
The target in the next assay is Bile acid receptor (Homo sapiens, UniProt Q96RI1). Nature of the assay: Affinity On-target Cellular interaction: (Reporter gene assay (HEK293T cells)) EUB0000182b NR1H4. In kind it is functional, cell-based, HEK-293T. Also on record: mode of action Agonist, recommended concentration 1 uM.
Assay [10] deals with Nucleotide triphosphate diphosphatase NUDT15 (Homo sapiens) (UniProt Q9NV35). Nature of the assay: Affinity On-target Cellular interaction: (Cellular thermal shift assay, HL-60 cells) EUB0002330a NUDT15. Also on record: recommended concentration 1 uM. Conditions: Affinity On-target Cellular Source Knowledge https://www.nature.com/articles/s41589-020-0592-z. It counts as functional, cell-based.

The target of assay [11] is T2, Peroxisome proliferator-activated receptor gamma. Put plainly: Affinity On-target Cellular interaction: (Reporter gene assay (HEK293T cells)) EUB0001143a PPARG. In kind it is functional, cell-based, HEK-293T. Details: mode of action Agonist, recommended concentration 1 uM.
Assay [12] deals with T4, Oxysterols receptor LXR-beta (Homo sapiens, UniProt P55055).
T4 sequence (P55055 whole entry): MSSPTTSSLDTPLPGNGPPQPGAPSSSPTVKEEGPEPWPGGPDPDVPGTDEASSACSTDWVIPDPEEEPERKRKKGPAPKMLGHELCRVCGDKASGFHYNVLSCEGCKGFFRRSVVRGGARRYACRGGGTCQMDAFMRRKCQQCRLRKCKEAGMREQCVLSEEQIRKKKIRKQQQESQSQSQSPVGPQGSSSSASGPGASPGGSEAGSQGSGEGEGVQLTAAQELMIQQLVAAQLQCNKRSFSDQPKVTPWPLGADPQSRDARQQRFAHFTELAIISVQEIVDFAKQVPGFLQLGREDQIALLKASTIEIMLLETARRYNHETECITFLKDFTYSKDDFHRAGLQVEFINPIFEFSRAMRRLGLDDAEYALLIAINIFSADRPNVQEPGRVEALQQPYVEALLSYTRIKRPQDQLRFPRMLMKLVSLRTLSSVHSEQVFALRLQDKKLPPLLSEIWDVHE
Nature of the assay: Affinity On-target Cellular interaction: (Reporter gene assay (HEK293T cells)) EUB0000183b NR1H2. In kind it is functional, cell-based, HEK-293T. Details: mode of action Antagonist, recommended concentration 3 uM.

Assay [13] addresses T5, Oxysterols receptor LXR-alpha (Homo sapiens, UniProt Q13133).
T5 sequence (Q13133 whole entry): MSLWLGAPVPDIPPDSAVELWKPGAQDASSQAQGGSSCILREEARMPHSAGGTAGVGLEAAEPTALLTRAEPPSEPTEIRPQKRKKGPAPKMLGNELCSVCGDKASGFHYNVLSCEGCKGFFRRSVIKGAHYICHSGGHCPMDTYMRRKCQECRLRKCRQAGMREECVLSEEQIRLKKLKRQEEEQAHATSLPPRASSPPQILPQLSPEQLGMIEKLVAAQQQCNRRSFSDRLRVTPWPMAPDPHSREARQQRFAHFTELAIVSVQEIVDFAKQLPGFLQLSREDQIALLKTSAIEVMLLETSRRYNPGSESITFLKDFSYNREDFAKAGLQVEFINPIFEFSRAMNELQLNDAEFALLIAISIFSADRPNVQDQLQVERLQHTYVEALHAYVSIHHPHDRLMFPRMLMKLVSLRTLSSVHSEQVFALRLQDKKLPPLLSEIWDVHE
Put plainly: Affinity On-target Cellular interaction: (Reporter gene assay (HEK293T cells)) EUB0000183b NR1H3. Details: mode of action Antagonist, recommended concentration 3 uM. In kind it is functional, cell-based, HEK-293T.

For assay [14], the target named is T3, Peroxisome proliferator-activated receptor delta. Put plainly: Affinity On-target Cellular interaction: (Reporter gene assay (HEK293T cells)) EUB0001151a PPARD. It counts as functional, cell-based, HEK-293T. Also on record: mode of action Antagonist, recommended concentration 1 uM.

Sequence of Nucleotide triphosphate diphosphatase NUDT15 (Homo sapiens) (Q9NV35 whole entry): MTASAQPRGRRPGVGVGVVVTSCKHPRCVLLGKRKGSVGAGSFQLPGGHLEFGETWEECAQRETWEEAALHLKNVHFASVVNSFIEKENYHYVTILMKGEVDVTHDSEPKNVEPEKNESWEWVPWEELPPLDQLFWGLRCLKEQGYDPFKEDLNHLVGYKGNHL
Sequence of Retinoic acid receptor gamma (P13631 whole entry): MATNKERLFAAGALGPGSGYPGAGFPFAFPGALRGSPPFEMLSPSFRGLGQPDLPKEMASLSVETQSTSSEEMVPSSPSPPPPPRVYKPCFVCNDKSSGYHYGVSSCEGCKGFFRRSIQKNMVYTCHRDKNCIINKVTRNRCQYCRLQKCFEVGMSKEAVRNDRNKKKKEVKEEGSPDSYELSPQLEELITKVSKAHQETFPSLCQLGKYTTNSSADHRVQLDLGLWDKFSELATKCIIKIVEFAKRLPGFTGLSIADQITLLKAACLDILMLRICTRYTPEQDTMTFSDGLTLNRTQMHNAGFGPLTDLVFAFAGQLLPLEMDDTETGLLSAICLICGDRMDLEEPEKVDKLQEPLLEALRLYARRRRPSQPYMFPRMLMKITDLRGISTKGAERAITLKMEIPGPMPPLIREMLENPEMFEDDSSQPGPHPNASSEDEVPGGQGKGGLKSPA
Sequence of Bile acid receptor (Q96RI1 whole entry): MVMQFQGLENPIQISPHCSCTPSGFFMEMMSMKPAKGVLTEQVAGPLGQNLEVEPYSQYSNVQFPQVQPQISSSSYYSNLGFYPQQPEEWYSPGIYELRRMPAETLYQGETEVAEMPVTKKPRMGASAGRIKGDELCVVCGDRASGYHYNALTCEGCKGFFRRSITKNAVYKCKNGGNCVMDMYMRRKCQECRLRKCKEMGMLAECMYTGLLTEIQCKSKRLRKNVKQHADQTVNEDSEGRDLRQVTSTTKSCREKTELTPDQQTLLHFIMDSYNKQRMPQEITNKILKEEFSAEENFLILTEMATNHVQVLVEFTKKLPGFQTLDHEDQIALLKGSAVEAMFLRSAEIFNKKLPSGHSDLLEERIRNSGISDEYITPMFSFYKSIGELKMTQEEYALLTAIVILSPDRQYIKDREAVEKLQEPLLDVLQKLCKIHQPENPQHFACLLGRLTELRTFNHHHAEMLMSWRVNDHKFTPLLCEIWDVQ
Sequence of Retinoic acid receptor beta (P10826 whole entry): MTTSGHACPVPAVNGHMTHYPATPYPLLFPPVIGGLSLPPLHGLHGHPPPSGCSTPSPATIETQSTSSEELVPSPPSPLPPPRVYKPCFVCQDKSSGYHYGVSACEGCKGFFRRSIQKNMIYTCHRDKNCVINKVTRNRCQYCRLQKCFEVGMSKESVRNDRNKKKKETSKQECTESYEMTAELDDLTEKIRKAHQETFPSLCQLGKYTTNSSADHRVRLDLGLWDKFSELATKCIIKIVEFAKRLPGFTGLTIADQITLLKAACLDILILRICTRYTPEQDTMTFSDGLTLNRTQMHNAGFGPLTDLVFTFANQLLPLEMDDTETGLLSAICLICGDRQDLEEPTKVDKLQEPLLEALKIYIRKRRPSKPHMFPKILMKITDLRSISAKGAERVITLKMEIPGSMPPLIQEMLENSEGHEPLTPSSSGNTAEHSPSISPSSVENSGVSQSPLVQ
Sequence of Nuclear receptor subfamily 1 group I member 3 (Q14994 whole entry): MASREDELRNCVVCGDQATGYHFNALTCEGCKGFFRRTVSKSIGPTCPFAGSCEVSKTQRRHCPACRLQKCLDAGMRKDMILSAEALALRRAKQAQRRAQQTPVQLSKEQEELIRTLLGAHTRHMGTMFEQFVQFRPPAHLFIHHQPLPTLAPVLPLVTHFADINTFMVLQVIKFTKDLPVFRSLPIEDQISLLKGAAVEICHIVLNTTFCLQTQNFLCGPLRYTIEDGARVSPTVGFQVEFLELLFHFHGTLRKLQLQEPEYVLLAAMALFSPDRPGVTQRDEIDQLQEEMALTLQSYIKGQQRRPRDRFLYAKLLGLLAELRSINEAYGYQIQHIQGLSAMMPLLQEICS
Sequence of Retinoic acid receptor alpha (P10276 whole entry): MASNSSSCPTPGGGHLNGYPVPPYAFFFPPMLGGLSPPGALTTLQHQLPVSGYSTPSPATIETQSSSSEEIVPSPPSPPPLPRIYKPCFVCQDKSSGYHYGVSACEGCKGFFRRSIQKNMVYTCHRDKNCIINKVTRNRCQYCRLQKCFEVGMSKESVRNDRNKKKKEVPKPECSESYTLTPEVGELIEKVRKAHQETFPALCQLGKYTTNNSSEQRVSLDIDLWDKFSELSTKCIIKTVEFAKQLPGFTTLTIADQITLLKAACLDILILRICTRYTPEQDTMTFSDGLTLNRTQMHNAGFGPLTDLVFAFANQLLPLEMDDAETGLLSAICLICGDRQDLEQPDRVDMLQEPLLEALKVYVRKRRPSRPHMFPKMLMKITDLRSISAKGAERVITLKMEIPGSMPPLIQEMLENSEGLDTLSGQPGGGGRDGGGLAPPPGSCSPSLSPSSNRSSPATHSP
Sequence of Vitamin D3 receptor (P11473 whole entry): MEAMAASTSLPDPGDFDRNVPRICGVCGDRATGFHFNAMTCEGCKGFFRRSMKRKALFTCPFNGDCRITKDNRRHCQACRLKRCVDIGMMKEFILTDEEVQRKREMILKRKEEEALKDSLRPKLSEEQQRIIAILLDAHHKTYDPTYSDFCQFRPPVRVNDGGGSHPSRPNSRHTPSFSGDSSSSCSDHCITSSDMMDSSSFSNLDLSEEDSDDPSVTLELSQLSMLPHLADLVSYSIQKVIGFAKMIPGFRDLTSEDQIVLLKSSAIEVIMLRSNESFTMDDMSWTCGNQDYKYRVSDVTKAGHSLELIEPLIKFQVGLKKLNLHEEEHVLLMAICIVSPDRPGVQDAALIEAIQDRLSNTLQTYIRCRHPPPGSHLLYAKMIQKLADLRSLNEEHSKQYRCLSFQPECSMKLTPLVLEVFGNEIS
Sequence of Lysine-specific demethylase 4A (Homo sapiens) (O75164 whole entry): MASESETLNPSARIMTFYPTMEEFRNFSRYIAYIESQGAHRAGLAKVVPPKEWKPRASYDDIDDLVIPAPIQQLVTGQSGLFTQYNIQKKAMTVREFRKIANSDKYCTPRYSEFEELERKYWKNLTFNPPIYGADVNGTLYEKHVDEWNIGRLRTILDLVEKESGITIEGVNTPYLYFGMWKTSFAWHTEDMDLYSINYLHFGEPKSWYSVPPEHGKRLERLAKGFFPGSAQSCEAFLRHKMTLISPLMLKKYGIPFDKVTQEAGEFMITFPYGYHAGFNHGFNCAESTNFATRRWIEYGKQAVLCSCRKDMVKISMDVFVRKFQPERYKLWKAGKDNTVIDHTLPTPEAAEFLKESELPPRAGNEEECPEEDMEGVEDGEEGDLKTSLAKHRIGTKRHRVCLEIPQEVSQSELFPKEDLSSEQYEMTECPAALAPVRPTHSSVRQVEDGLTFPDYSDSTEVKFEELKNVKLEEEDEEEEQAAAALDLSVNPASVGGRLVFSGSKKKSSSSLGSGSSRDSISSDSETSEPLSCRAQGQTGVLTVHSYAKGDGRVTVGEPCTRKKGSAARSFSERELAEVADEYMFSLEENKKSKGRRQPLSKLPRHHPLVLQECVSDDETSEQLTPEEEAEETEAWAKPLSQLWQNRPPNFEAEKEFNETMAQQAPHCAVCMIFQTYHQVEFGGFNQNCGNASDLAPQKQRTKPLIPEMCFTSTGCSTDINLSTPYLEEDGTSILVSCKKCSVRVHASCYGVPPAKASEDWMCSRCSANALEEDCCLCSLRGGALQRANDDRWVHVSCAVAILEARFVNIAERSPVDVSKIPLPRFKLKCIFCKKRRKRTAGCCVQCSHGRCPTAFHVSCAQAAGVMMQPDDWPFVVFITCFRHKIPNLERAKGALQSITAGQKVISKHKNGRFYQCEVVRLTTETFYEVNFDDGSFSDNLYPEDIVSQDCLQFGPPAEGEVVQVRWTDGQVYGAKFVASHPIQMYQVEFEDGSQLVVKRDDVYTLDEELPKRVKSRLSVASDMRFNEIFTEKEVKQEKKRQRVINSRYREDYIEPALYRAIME

`CC(C)[C@@H]1NC(=O)[C@H](Cc2ccc(O)cc2)NC(=O)[C@@H](CC(=O)O)NC(=O)S[C@@H](C(=O)O)NC(=O)[C@H]([C@H](C)O)NC(=O)[C@H](Cc2ccc(O)cc2)NC(=O)[C@H](Cc2c[nH]c3ccccc23)NC(=O)[C@H](CCCNC(=N)N)NC(=O)[C@H](Cc2c[nH]c3ccccc23)NC(=O)[C@H](C)NC(=O)[C@H](CO)NC(=O)[C@H](CCCNC(=N)N)NC(=O)[C@H]([C@H](C)O)NC(=O)[C@H](CC(N)=O)NC(=O)[C@H](Cc2ccc(O)cc2)NC1=O`: the K in assay [1] was found to be 285 nM.

In turn, `Cc1cccc(CN2CCN(C(c3ccccc3)c3ccc(Cl)cc3)CC2)c1` (stereo unspecified) displayed an IC50 in assay [2] of 63 nM.

Regarding `C=C1/C(=C\C=C2/CCC[C@]3(C)[C@@H]([C@H](C)/C=C/[C@H](C)C(C)C)CC[C@@H]23)C[C@@H](O)C[C@@H]1O` [DOXERCALCIFEROL], it took 960 nM to reach a half-maximal effect on Vitamin D3 receptor (EC50).

In the case of `CC(C)c1ccc(CC(=O)N2CCC[C@@H](c3cccc(OC(C)(C)C(=O)O)c3)C2)cc1`, the EC50 in [3] was 50 nM.

On to `CCCc1c(OCCCOc2ccc(OCC(=O)O)cc2)ccc(C(C)=O)c1O`, for which the EC50 in assay [4] was 1000 nM; in assay [5], 980 nM; in assay [6] it was 15 nM.

For `C[C@H]1[C@H]2CC[C@H]3[C@@H]4CC=C5C[C@@H](N(C)C)CC[C@]5(C)[C@H]4CC[C@]23CN1C` [CONESSINE], the EC50 in assay [7] is 501 nM; in assay [8], 630 nM; in [9], 10 nM.

On to `COC(=O)/C=C/c1cccc(N(Cc2ccc(-c3ccc(N(C)C)cc3)cc2)C(=O)C2CCCCC2)c1` [FEXARAMINE], for which the EC50 on Bile acid receptor was found to be 960 nM. In other words, the sub-micromolar range.

`O=C(c1ccc2[nH]ccc2c1)N1CCN(S(=O)(=O)c2ccc3[nH]c(=O)oc3c2)CC1`: the K in assay [10] turned out to be 280 nM.

For `COc1cc2c(cc1CC=C(C)C)C(=O)C[C@@H](c1ccc(O)cc1)O2` [BAVACHININ A], the midpoint of the response in assay [11], the EC50, lay at 730 nM.

As to `Cc1cc(C)c(S(=O)(=O)N(Cc2ccc(-c3cccc(S(C)(=O)=O)c3)cc2)Cc2ccc(C(F)(F)F)o2)c(C)c1`, the figures for the IC50 in [12] and in assay [13] were 40 nM and 100 nM, respectively.

`O=C(NCCS(=O)(=O)c1ccc(C(F)(F)F)cn1)c1ccc(Cl)cc1` gave an IC50 in assay [14] of 100 nM. This counts as sub-micromolar.

By IC50 is commonly meant the concentration that gives 50% inhibition. The low end stands for inhibition by little substance, the high end for a need for much substance. In general, EC50 refers to the concentration needed to bring the measured effect to its halfway point.

The values are drawn from ChEMBL document CHEMBL5723379, “Affinity On-target Cellular Literature for EUbOPEN Chemogenomic Library” (2024).
